The structures appear in SMILES notation. Like-named read-outs stand apart in the source and are kept apart here. Where only a bound is given, the exact number is not on record here.

The subject of data set [1] is CS242 ERMS (screening) cells. The data set can be described thus: CS242 ERMS (screening) cell viability assay, CellTiter-Glo, 72 h. The conditions noted are these: for IC50 / viability at 18.8 µM: Homo sapiens; for viability at 18.8 µM: read-out: CS242 ERMS % Viability (max conc). The procedure: To generate cells optimized for high-throughput screening (HTS), one vial of frozen cells from the CS242 ERMS (initial) master cell bank was thawed in a 37°C water bath for 2 min, diluted by dropwise addition of 10 volumes of PBS, pelleted at 200 × g for 5 min, resuspended in PBS, pelleted, resuspended in medium, and transferred to a T75 flask. Cells were grown to 70% confluence over 27 days, with media changes every 3 days. Cells were then detached by trypsin treatment as described above [see CS242 ERMS (Initial)] and split at 1:20 into T150 flasks, giving 20 individual cultures at passage 7. After growth for a further 27 days with media changes every 3 days, cells reached 70% confluence and were detached and frozen as described above [see CS242 ERMS (Initial)] to give a working cell bank at passage 8.
Cell growth in 384-well plates was assessed daily for 5 days to determine the optimal starting cell number giving progressive growth suitable for a 72-h cell viability assay. One vial of CS242 ERMS cells was thawed from the screening bank and grown in a T75 flask until confluence was >70%, after which cells were detached using trypsin and counted as described above [see CS242 ERMS (Zardaverine Resistant)].
Using an electronic 16-channel pipettor (Finnpipette Novus MCP16), 40 μl of each cell dilution was dispensed into two columns of a TC-treated opaque white 384-well plate, giving a range of 10,000 to 78 cells/well. Columns 1, 2, 23, and 24 were filled with media alone (40 μl/well). Five replicate plates were covered with MicroClime environmental lids (Labcyte) to minimize evaporation and incubated at 37°C, 5% CO2 for 24, 48, 72, 96, and 120 h, respectively. A sixth plate was prepared for determination of cell viability at the time of cell seeding. To determine cell viability, plates were allowed to cool to room temperature for 1 h after removal from 37°C incubation, 20 μl/well of CellTiter-Glo was added using a MicroFlo Select microplate reagent dispenser (BioTek, Winooski, VT, USA), and luminescence was measured after an additional 30 min at room temperature using an EnVision microplate reader (PerkinElmer, Waltham, MA, USA).
The IC50 of dactinomycin was determined using cells passaged once from the CS242 ERMS (screening) cell bank [see CS242 ERMS (Screening)]. Cells were thawed, grown to 70% confluence over 3 days in a T75 flask, detached by trypsin treatment, seeded at 1,250 cells in 30 μl of media/well in 384-well opaque white TC plates, and allowed to attach overnight. […] After 72 h of cell growth in the presence of dactinomycin, 20 μl of CellTiter-Glo was added, and cell viability was determined as described above (see Cell Viability Assay Development). Percent viability was determined from luminescence values using high controls (no dactinomycin) and low controls (media alone; no cells), and IC50 values were calculated using four-parameter dose–response curve fitting analysis in GraphPad Prism.
The 2,000-compound Microsource Spectrum library was screened using a fresh batch of CS242 ERMS (screening) cells for each HTS run, prepared as described above (see Cell Viability Assay Development). […] Media alone was added to low control (background) wells in columns 2 and 24. Plates were covered using MicroClime environmental lids (Labcyte), and cells were allowed to attach overnight (≤12 h) at 37°C in an atmosphere of 5% CO2.
Compounds were delivered to columns 3–22 of assay plates containing attached cells via an intermediate dilution. […] Likewise, DMSO was added to columns 1, 2, 23, and 24 for high and low controls, matching the 0.06% DMSO in the test wells.

Data set [2] has as its target glucocorticoid receptor (GR) activation. Details: method as in earlier work. The conditions noted are these: 18 h treatment, ref [30], cited from earlier work.
Data set [3] concerns CS242 ERMS (zardaverine resistant) cells. Description: CS242 ERMS (zardaverine resistant) cell viability assay, 72 h. The data set is classed as cell-based. The note with it: Homo sapiens, Figure 5 subpopulations. The procedure:
Cells were detached by trypsin treatment, counted with a hemocytometer using trypan blue exclusion ([11]), and seeded at 212,000/well in 2 ml of growth media in a 6-well plate. […] After overnight attachment to the plate, the resulting cells at passage 9 were treated with zardaverine at 0.94 μM (~3 × IC50 obtained in 384-well plates) and incubated for […], with media (containing zardaverine) changed after 3 days. Cells were detached, split at 1:6 into a new 6-well plate, and the resulting cells at passage 10 were allowed to recover in the absence of zardaverine for 6 days, with a media change after 3 days. Cells were then treated with 15 μM zardaverine for 3 days, detached, split, and expanded into a T75 flask, and allowed to recover for 2 days in the absence of zardaverine. The resulting cells at passage 11 were treated with fresh media containing 15 μM zardaverine and incubated for 4 days at which time cells reached 70% confluence. […] One vial of cells from the master cell bank was then used to generate a working cell bank. Cells were thawed into a T75 flask, and immediately maintained in the presence of 15 μM zardaverine in media. Cells were grown for 9 days, with media changes every 3 days, detached, and split at 1:10 into T150 flasks, giving 10 individual cultures at passage 13.

Data set [4] has as its system CS242 ERMS (initial) cells. Description: CS242 ERMS (initial) cell viability assay, 72 h. The format is cell-based, human. The conditions noted are these: for IC50: Homo sapiens, Figure 5 subpopulations, mean ± SD of three curve fits. As to the method: Initially, patient-derived CS242 ERMS cells were established in culture in DMEM supplemented with 20% FBS, as described in Robbins et al. ([8]). […] After five passages, cells at 30% confluence were grown for a further 3 days in a T25 flask, followed by expansion into two 10 cm^2 dishes and continued growth and a media change every 3 days for a total of 9 days, after which time >70% confluence was reached. After removal of media by aspiration, cells were washed with PBS and detached by treatment with 0.25% trypsin. Detached cells were washed in media, pelleted at 200 × g for 5 min, and resuspended in freezing medium comprising 90% FBS and 10% DMSO. The resulting master cell bank (at passage 6 following expansion from T25, growth and detachment) was dispensed into 1-ml cryogenic vials at 1–5 million cells/vial, frozen at −80°C for 72 h, and transferred to vapor phase liquid nitrogen storage.

Where [5] appears, read: 72 h, read-out: CS242 ERMS IC50, Table 4 analogs, 72 h, mean ± SD (n = 3).
Where [6] appears, read: 72 h, read-out: CS242 ERMS viability IC50, Table 3 PDE inhibitor panel, 72 h, top 18.8, 75 or 93.8 μM, mean ± SD (n = 3).
The mark [7] stands for this setting: 72 h, read-out: IC50 CS242 ERMS (screening), Figure 4 cell line panel, 72 h, top 7.5 μM, mean ± SD of three curve fits.
The mark [8] stands for this setting: 72 h, read-out: IC50 CS242 ERMS (screening), Figure 5 subpopulations, 72 h, mean ± SD of three curve fits.

As a reminder, the IC50 is the concentration at which inhibition is half-maximal. By viability is commonly meant a read-out of living cells in per cent, often relative to untreated cells. `COc1cc(-c2ccc(=O)[nH]n2)ccc1OC(F)F` [Zardaverine]: the IC50 was 262 ± 15 nM in data set [1] (setting [5]); 409 ± 24.3 nM in data set [1] (setting [6]); 276 ± 17.6 nM in data set [1] (setting [7]); 449 ± 75.2 nM in data set [1] (setting [8]); 206 ± 4.9 nM in data set [1] (72 h, read-out: IC50 CS242 ERMS, Table 2 hit confirmation, 72 h, 16-point dose-response, top 7.5 μM, mean ± SD (n = 3)); 300 nM in data set [2] (read by the authors from PubChem dose-response data, read-out: IC50, inhibition of GR activation in engineered HeLa cells). Besides, the IC50 in data set [3] is over 7500 nM; in data set [4] (72 h) it was 901 ± 128 nM. Besides, the viability at 18.8 µM in data set [1] was found to be 10 ± 0.7%. In data set [1] (IC50 in CS242 fibroblasts/IC50 in CS242 ERMS), this compound yielded a Fold selectivity of over 36.4. Also, the “killing of CS242 ERMS at high concentrations, in words” value in data set [1] (cell line panel dose-response, 72 h) is “complete killing”. For the same compound, the “cell viability plateau at high concentrations in CS242 ERMS (initial)” value in data set [4] (72 h dose-response) turned out to be 40%.
As usually defined, the cell viability is a read-out of living cells in per cent, often relative to untreated cells. Read a low cell viability as a greater loss of cells. Take `O=C1CN2Cc3c(ccc(Cl)c3Cl)N=C2N1` [Anagrelide]: the “inhibition of viability in Spectrum library screen” value in data set [1] (2.5 μM, 72 h, two replicate screens) worked out at 81%. In addition, the IC50 in data set [1] (setting [5]) was 58 ± 4 nM; in data set [1] (setting [6]) it was 68.1 ± 1.6 nM; in data set [1] (setting [7]), 25.1 ± 2.8 nM; in data set [1] (setting [8]), 93 ± 14.4 nM; in data set [3], over 7500 nM; in data set [4] (72 h) it was over 7500 nM. In data set [1], the viability at 18.8 µM was 34.7 ± 1.5%. Also, in data set [1] (human, 72 h, 7.5 μM), the “cell viability at the highest concentrations in CS242 ERMS” value was found to be 25%. Besides, in data set [2], the “activity in GR activation screen, in words” value was “highly active”. Besides, the “activity in CS242 ERMS (initial), in words” value in data set [4] (72 h) is “inactive”.

These data come from PMC5376947, “Cytotoxicity of Zardaverine in Embryonal Rhabdomyosarcoma from a Costello Syndrome Patient” (Frontiers in Oncology, 2017).
